# EPA's ToxValDB 9.5
# Where “and” joins values, the source holds several entries; their conditions need not be identical. Equal entries are not always repeated.
# Tests used:
# Rattus norvegicus [1] = conditions: oral, gavage; for NOEL: M; for NOAEL: M/F
# Rattus norvegicus [2] = tested on: Rattus norvegicus
# Rattus norvegicus [3] = conditions: oral, gavage; for LD50: acute
# [4] = acute, duration: 4 hours, inhalation, M, Bone Marrow: Bone Marrow Histopathology + Spleen: Spleen Histopathology + Whole Body: Clinical Signs
# [5] = reproduction developmental, duration: 9 days, inhalation, F, generation: P0, P0: Whole Body: Maternal Body Weight, Initial
# [6] = reproduction developmental, duration: 9 days, inhalation, M/F, generation: F1, F1: Vertebra: Thoracic Centrum, Dipartite Ossification
# [7] = reproduction developmental, duration: 14 days, oral, gavage, F, Crj:CD, generation: P0, P0: Uterus: >=6 Days of Diestrus + P0: Uterus: Estrous Cycle, Length + P0: Whole Body: Delivery Index + P0: Whole Body: Length of Gestation…
# [8] = reproduction developmental, duration: 14 days, oral, gavage, M/F, Crj:CD, generation: F1, F1: Whole Body: Live Birth Index + F1: Whole Body: Live Pups Born + F1: Whole Body: Survival + F1: Whole Body: Viability Index
# [9] = reproduction developmental, duration: 42 days, oral, gavage, M, Crj:CD, generation: P0, P0: Whole Body: Percent Mating
# [10] = short-term, duration: 14 days, oral, gavage, F, Crj:CD, Liver: Cholesterol (CHOL), Total
# [11] = subchronic, duration: 42 days, oral, gavage, M, Crj:CD, Adrenal: Adrenal Gland Weight, Absolute + Liver: Aspartate Aminotransferase (AST) + Spleen: Spleen Weight, Relative
compound,measurement,setting,value
OC(C(F)(F)F)C(F)(F)F [2H-Perfluoro-2-propanol],NOEL,"Rattus norvegicus [1]; subchronic, Sprague-Dawley, Clinical Observation: Prone position Lateral position Locomotor activity decrease + Functional Observational Battery: Prone position Lateral…",10 mg/kg-day
same,LOAEL,Rattus norvegicus [2]; [4],5500 mg/m3
same,NOAEL,Rattus norvegicus [2]; [4],1370 mg/m3 and 1380 mg/m3
same,LOAEL,"Rattus norvegicus [2]; acute, duration: 4 hours, inhalation, M, Brain: Brain Histopathology + Brain: Brain Pathology + Duodenum: Duodenum Histopathology + Heart: Heart Histopathology + Kidney: Kidney …",1370 mg/m3 and 1380 mg/m3
same,NOAEL,"Rattus norvegicus [2]; developmental, duration: 9 days, inhalation, M/F, generation: F1, F1: Rib: Rib, Wavy + F1: Skin: Petechial Hemorrhages + F1: Skin: Subcutaneous Hematoma, Small + F1: Skull: Hyoid Body, Unossified + F1: …",1380 mg/m3 and 1370 mg/m3
same,NOAEL,"Rattus norvegicus [2]; reproduction developmental, duration: 9 days, inhalation, F, generation: P0, P0: Ovary: Corpora Lutea + P0: Uterus: Mean Implantations/Litter + P0: Uterus: Resorptions, Early + P0: Uterus: Resorptions, Late + P0: …",1380 mg/m3 and 1370 mg/m3
same,LOAEL,Rattus norvegicus [2]; [5],1380 mg/m3 and 1370 mg/m3
same,NOAEL,Rattus norvegicus [2]; [5],207 mg/m3 and 206 mg/m3
same,LOAEL,"Rattus norvegicus [2]; reproduction developmental, duration: 9 days, inhalation, M/F, generation: F1, F1: Kidney: Hydronephrosis + F1: Rib: 14th Rudimentary Rib",207 mg/m3 and 206 mg/m3
same,LOAEL,Rattus norvegicus [2]; [6],1380 mg/m3 and 1370 mg/m3
same,NOAEL,Rattus norvegicus [2]; [6],207 mg/m3 and 206 mg/m3
same,LOAEL,"Rattus norvegicus [2]; reproduction developmental, duration: 14 days, oral, gavage, F, Crj:CD, generation: F1, F1: Whole Body: Pup Weight Relative to Litter",300 mg/kg-day
same,NOAEL,"Rattus norvegicus [2]; reproduction developmental, duration: 14 days, oral, gavage, F, Crj:CD, generation: P0, P0: Ovary: Corpora Lutea + P0: Uterus: Estrous Cycle, Irregular + P0: Uterus: Estrous Stages/ 21 Days + P0: Uterus: Implantation + P0: …",300 mg/kg-day
same,LOAEL,Rattus norvegicus [2]; [7],300 mg/kg-day
same,NOAEL,Rattus norvegicus [2]; [7],60 mg/kg-day
same,LOAEL,Rattus norvegicus [2]; [8],300 mg/kg-day
same,NOAEL,Rattus norvegicus [2]; [8],60 mg/kg-day
same,NOAEL,"Rattus norvegicus [2]; reproduction developmental, duration: 14 days, oral, gavage, M/F, Crj:CD, generation: F1, F1: Whole Body: Male Pups per Pups Sexed + F1: Whole Body: Male Pups per Pups Sexed, Live Offspring",300 mg/kg-day
same,LOAEL,"Rattus norvegicus [2]; reproduction developmental, duration: 14 days, oral, gavage, M, Crj:CD, generation: F1, F1: Whole Body: Pup Weight Relative to Litter",300 mg/kg-day
same,NOAEL,"Rattus norvegicus [2]; reproduction developmental, duration: 42 days, oral, gavage, M, Crj:CD, generation: P0, P0: Whole Body: Days of Cohabitation + P0: Whole Body: Fertility Index",300 mg/kg-day
same,LOAEL,Rattus norvegicus [2]; [9],300 mg/kg-day
same,NOAEL,Rattus norvegicus [2]; [9],60 mg/kg-day
same,NOAEL,"Rattus norvegicus [2]; short-term, duration: 14 days, oral, gavage, F, Crj:CD, Adrenal: Adrenal Gland Histopathology + Adrenal: Adrenal Gland Weight, Absolute + Adrenal: Adrenal Gland Weight, Relative + Basophils + …",300 mg/kg-day
same,LOAEL,"Rattus norvegicus [2]; short-term, duration: 14 days, oral, gavage, F, Crj:CD, Calcium (CA) + Central Nervous System: CNS Depression + Liver: Hepatocellular Hypertrophy + Liver: Liver Weight, Relative, Recovery + …",300 mg/kg-day
same,NOAEL,"Rattus norvegicus [2]; short-term, duration: 14 days, oral, gavage, F, Crj:CD, Calcium (CA) + Central Nervous System: CNS Depression + Liver: Hepatocellular Hypertrophy + Peripheral Nervous System: Aerial Righting …",60 mg/kg-day
same,LOAEL,Rattus norvegicus [2]; [10],60 mg/kg-day
same,NOAEL,Rattus norvegicus [2]; [10],10 mg/kg-day
same,NOAEL,"Rattus norvegicus [2]; subchronic, duration: 42 days, oral, gavage, M, Crj:CD, Adrenal: Adrenal Gland Histopathology + Adrenal: Adrenal Gland Weight, Absolute, Recovery + Adrenal: Adrenal Gland Weight, Relative, …",300 mg/kg-day
same,LOAEL,Rattus norvegicus [2]; [11],60 mg/kg-day
same,NOAEL,Rattus norvegicus [2]; [11],10 mg/kg-day
same,LOAEL,"Rattus norvegicus [2]; subchronic, duration: 42 days, oral, gavage, M, Crj:CD, Adrenal: Adrenal Gland Weight, Relative",10 mg/kg-day
same,LOAEL,"Rattus norvegicus [2]; subchronic, duration: 42 days, oral, gavage, M, Crj:CD, Blood: Platelet Count (PLT) + Blood: Reticulocytes + Brain: Brain Weight, Absolute + Brain: Brain Weight, Absolute, Recovery + Central …",300 mg/kg-day
same,NOAEL,"Rattus norvegicus [2]; subchronic, duration: 42 days, oral, gavage, M, Crj:CD, Blood: Platelet Count (PLT) + Blood: Reticulocytes + Brain: Brain Weight, Absolute + Central Nervous System: CNS Depression + Kidney: Urea …",60 mg/kg-day
Cc1ccc(Cl)cc1 [4-Chlorotoluene],LD50,Rattus norvegicus [3]; Sprague-Dawley,2350 mg/kg and 1900 mg/kg
same,NOAEL,"Rattus norvegicus [1]; short-term, duration: 29 days, Wistar, Deaths + Clinical Observation: Rough fur Reduced condition Difficulties in breathing Distended abdomen Salivation + Body Weight Changes: …",200 mg/kg-day
same,NOAEL,"Rattus norvegicus [1]; subchronic, duration: 90 days, Sprague-Dawley, Deaths + Clinical Observation: Languid behavior Prostration Sensitivity to touch Tremor Epistaxis Wheezing Dyspnea + Body Weight Changes: …",200 mg/kg-day
"Cc1cc(S(=O)(=O)[O-])c(N=Nc2c([O-])c(C(=O)O)cc3ccccc23)cc1Cl.[Ca+2] [C.I. Pigment Red 48, calcium salt (1:1)]",LD50,Rattus norvegicus [3],≥ 5000 mg/kg
same,NOEL,"Rattus norvegicus [1]; subchronic, Sprague-Dawley, Functional Observational Battery: Grip strength of hind limbs + Relative Organ Weight: Kidneys increase + Histopathology: Kidneys/ proximal …",200 mg/kg-day
O=C1N(CO)C(O)C(O)N1CO (stereo unspecified) [Dimethyloldihydroxyethyleneurea],NOAEL,"Rattus norvegicus [3]; developmental, duration: 10 days, Wistar",640 mg/kg-day
same,NOAEL,"Rattus norvegicus [3]; reproduction developmental, duration: 14 days, Fischer 344",4000 mg/kg-day
same,NOAEL,"Rattus norvegicus [1]; subchronic, duration: 90 days, Fischer 344, Clinical Observation: Yellow discoloration, abdominal/anogenital region Soft stool Hypoactivity Grasping reflex decrease, Hypothermic …",3000 mg/kg-day
